Calls of active or inactive are those of the source. The calls are words filed in the database; no cut-off is given here.
Legend:
[1] = biological target: Amyloid-beta precursor protein (Homo sapiens) (UniProt P05067); assay: Inhibition of self-mediated Amyloid beta (1 to 42)(unknown origin) aggregation at 3.125 uM incubated for 3 days by ThT assay; conditions: time 3.0 day
Mus musculus [2] = assay: Protection against scopolamine-associated dementia in Swiss albino mouse model assessed as increase in latency period at 10 mg/kg, ip measured after 14 days by Passive avoidance task method; assay type: functional, organism-based; conditions: time 14.0 day
[3] = biological target: Cholinesterase (Equus caballus) (UniProt P81908); assay: Competitive inhibition of equine BChE using BTCI as substrate at 1 to 10 uM preincubated for 30 mins followed by substrate addition by Ellman's method; conditions: dose 1-10 µM
Sequence of Cholinesterase (Equus caballus) (P81908 whole entry): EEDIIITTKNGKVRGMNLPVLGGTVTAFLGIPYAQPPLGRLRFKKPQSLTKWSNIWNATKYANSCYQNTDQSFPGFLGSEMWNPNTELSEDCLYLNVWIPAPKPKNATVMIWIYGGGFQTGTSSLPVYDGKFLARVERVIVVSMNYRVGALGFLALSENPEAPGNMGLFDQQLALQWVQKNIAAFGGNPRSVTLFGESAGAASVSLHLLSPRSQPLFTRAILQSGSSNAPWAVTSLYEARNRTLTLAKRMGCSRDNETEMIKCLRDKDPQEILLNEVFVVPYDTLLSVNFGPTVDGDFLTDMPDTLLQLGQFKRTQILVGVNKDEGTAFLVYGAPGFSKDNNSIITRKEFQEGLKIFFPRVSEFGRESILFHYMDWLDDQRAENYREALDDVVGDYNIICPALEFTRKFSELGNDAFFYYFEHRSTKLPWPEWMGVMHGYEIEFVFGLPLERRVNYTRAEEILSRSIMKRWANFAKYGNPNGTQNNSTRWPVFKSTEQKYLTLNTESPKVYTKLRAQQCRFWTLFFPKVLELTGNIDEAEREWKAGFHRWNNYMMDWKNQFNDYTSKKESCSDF

Mus musculus [4] = assay: Neuroprotective activity against scopolamine-induced cognitive deficit Swiss albino mouse model assessed as increase in PSD95 mRNA level at 10 mg/kg, ip measured after 14 days by RT-PCR analysis; assay type: functional, organism-based; conditions: time 14.0 day
[5] = Antioxidant activity assessed as inhibition of DPPH radical scavenging activity incubated for 30 mins by absorbance based analysis; assay type: functional
HMC3 [6] = assay: Antiinflammatory activity against LPS/ATP-induced human HMC3 cells assessed as reduction in NF-kappaB level at 12.5 uM by immunocytochemistry based analysis; assay type: functional, cell-based
Mus musculus [7] = assay: Neuroprotective activity against scopolamine-induced cognitive deficit Swiss albino mouse model assessed as increase in GAP43 mRNA level at 10 mg/kg, ip measured after 14 days by RT-PCR analysis; assay type: functional, organism-based; conditions: time 14.0 day
Mus musculus [8] = assay: Reversal of scopolamine-induced cognitive deficit Swiss albino mouse model assessed as increase in time in platform quadrant at 10 mg/kg, ip measured after 5 days by Morris water maze test; assay type: functional, organism-based; conditions: time 5.0 day
Mus musculus [9] = assay: Neuroprotective activity against scopolamine-induced cognitive deficit Swiss albino mouse model assessed as increase in TRKB mRNA level at 10 mg/kg, ip measured after 14 days by RT-PCR analysis; assay type: functional, organism-based; conditions: time 14.0 day
HMC3 [10] = assay: Inhibition of LPS/ATP-induced cytotoxicity against human HMC3 cells at 12.5 uM incubated for 24 hrs by MTT assay; assay type: functional, cell-based
[11] = Acute toxicity in Swiss albino mouse assessed as signs of diarrhea at 2000 mg/kg, po measured 14 days post-administration; assay type: organism-based; conditions: in vivo, 336 h, time 14 day
[12] = biological target: Microtubule-associated protein tau (Homo sapiens) (UniProt P10636); assay: Inhibition of Tau (unknown origin) aggregation at 1.125 uM incubated for 3 days by ThT assay; conditions: time 3.0 day
Sequence of Microtubule-associated protein tau (Homo sapiens) (P10636 whole entry): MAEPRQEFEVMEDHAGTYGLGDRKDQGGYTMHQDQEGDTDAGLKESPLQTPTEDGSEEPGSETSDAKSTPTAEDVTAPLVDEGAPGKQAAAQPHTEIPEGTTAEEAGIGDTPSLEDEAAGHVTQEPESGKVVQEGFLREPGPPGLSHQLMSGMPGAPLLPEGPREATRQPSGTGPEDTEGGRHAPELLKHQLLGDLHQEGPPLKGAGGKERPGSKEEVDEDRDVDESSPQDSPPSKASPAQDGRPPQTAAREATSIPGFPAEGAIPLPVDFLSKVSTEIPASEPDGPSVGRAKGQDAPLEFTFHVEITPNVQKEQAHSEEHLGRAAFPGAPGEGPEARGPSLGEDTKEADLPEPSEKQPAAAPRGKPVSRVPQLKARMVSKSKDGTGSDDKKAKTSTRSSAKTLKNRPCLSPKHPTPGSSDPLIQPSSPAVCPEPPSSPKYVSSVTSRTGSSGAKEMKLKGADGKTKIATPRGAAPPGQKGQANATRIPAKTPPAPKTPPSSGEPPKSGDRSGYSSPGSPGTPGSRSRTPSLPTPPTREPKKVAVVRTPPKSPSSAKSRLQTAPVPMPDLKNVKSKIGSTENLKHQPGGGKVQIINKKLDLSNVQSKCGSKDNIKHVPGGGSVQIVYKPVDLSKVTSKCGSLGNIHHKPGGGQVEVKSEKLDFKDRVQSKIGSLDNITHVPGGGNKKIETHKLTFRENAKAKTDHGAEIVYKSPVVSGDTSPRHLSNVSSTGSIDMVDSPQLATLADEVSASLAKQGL

[13] = Permeability of compound in PBS at pH 7.4 at 500 uM by PAMPA; assay type: ADME; conditions: read-out: permeability
Acetylcholinesterase [14] = biological target: T1, Acetylcholinesterase (Homo sapiens, UniProt P22303); assay: Inhibition of human AChE using ATCI as substrate preincubated for 30 mins followed by substrate addition measured after 30 mins by Ellman's method
T1 sequence (P22303 whole entry): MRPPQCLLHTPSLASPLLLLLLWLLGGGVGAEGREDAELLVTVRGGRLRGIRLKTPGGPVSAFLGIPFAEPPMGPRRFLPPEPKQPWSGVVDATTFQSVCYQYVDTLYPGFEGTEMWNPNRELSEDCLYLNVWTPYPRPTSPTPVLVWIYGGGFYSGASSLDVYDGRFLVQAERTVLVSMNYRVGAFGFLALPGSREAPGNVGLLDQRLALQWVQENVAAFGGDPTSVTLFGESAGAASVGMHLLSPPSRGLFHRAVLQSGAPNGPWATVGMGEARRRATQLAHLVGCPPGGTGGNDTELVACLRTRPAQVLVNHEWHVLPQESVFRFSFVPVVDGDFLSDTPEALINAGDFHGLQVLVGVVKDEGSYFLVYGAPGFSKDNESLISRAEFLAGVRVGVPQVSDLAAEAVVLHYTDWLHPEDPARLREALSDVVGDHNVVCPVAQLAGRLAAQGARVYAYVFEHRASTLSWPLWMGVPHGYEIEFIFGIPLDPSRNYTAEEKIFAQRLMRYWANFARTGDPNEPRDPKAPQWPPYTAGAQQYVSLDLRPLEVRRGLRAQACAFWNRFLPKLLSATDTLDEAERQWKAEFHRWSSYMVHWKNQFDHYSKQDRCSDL

[15] = Acute toxicity in Swiss albino mouse assessed as animal survival at 2000 mg/kg, po measured 14 days post-administration; assay type: organism-based; conditions: in vivo, 336 h, time 14 day
HMC3 [16] = assay: Antiinflammatory activity against LPS/ATP-induced human HMC3 cells assessed as increase in vimentin level at 12.5 uM by immunocytochemistry based analysis; assay type: functional, cell-based
Mus musculus [17] = assay: Neuroprotective activity against scopolamine-induced cognitive deficit Swiss albino mouse model assessed as increase in CREB1 mRNA level at 10 mg/kg, ip measured after 14 days by RT-PCR analysis; assay type: functional, organism-based; conditions: time 14.0 day
Mus musculus [18] = assay: Neuroprotective activity against scopolamine-induced cognitive deficit Swiss albino mouse model assessed as increase in Nr4a2 mRNA level at 10 mg/kg, ip measured after 14 days by RT-PCR analysis; assay type: functional, organism-based; conditions: time 14.0 day
[19] = Antioxidant activity assessed as DPPH radical scavenging activity at 20 to 200 uM incubated for 30 mins by absorbance based analysis relative to control; assay type: functional; conditions: dose 20-200 µM
PC-12 = assay: Cytotoxicity against rat PC-12 cells upto 20 uM incubated for 24 hrs by MTT assay; assay type: toxicity, cell-based; conditions: pc-12, 24 h
[20] = Induction of NO release upto 100 uM incubated for 5 to 10 mins by Griess assay; assay type: functional; conditions: time 5-10 min
[21] = Acute toxicity in Swiss albino mouse assessed as signs of tremor at 2000 mg/kg, po measured 14 days post-administration; assay type: organism-based; conditions: in vivo, 336 h, time 14 day
Mus musculus [22] = assay: Neuroprotective activity against scopolamine-induced cognitive deficit Swiss albino mouse model assessed as increase in c-FOS mRNA level at 10 mg/kg, ip measured after 14 days by RT-PCR analysis; assay type: functional, organism-based; conditions: time 14.0 day
HMC3 [23] = assay: Induction of mitochondrial membrane potential stability in LPS/ATP-induced human HMC3 cells at 12.5 uM incubated for 24 hrs by Rhodamine 123/JC-1 staining based analysis; assay type: functional, cell-based
HMC3 [24] = assay: Inhibition of mitochondrial impairment in LPS/ATP-induced human HMC3 cells at 12.5 uM incubated for 24 hrs by Rhodamine 123/JC-1 staining based analysis; assay type: functional, cell-based
Mus musculus [25] = assay: Reversal of scopolamine-induced cognitive deficit Swiss albino mouse model assessed as increase in number of entries in target quadrant at 10 mg/kg, ip measured after 5 days by Morris water maze test; assay type: functional, organism-based; conditions: time 5.0 day
HMC3 [26] = assay: Antiinflammatory activity against LPS/ATP-induced human HMC3 cells assessed as increase in Nrf2 level at 12.5 uM by Western blot analysis; assay type: functional, cell-based
HMC3 [27] = assay: Antiinflammatory activity against LPS/ATP-induced human HMC3 cells assessed as reduction in IL-18 level at 12.5 uM by Western blot analysis; assay type: functional, cell-based
[28] = Acute toxicity in Swiss albino mouse assessed as signs of convulsion at 2000 mg/kg, po measured 14 days post-administration; assay type: organism-based; conditions: in vivo, 336 h, time 14 day
Mus musculus [29] = assay: Reversal of scopolamine-induced cognitive deficit Swiss albino mouse model assessed as reduction in distance traveled to reach platform at 10 mg/kg, ip measured after 5 days by Morris water maze test; assay type: functional, organism-based; conditions: time 5.0 day
HMC3 [30] = assay: Antiinflammatory activity against LPS/ATP-induced human HMC3 cells assessed as reduction in NLRP3 level at 12.5 uM by Western blot analysis; assay type: functional, cell-based
HMC3 [31] = assay: Antiinflammatory activity against LPS/ATP-induced human HMC3 cells assessed as decrease in Iba-1 level at 12.5 uM by Western blot analysis; assay type: functional, cell-based
HMC3 [32] = assay: Inhibition of ROS production in LPS/ATP-induced human HMC3 cells at 12.5 uM incubated for 24 hrs by MitoSOX Red FM staining based analysis; assay type: functional, cell-based
HMC3 [33] = assay: Antiinflammatory activity against LPS/ATP-induced human HMC3 cells assessed as reduction in caspase-1 level at 12.5 uM by Western blot analysis; assay type: functional, cell-based
Cholinesterase [34] = biological target: T2, Cholinesterase (Homo sapiens, UniProt P06276); assay: Inhibition of human BChE using BTCI as substrate preincubated for 30 mins followed by substrate addition measured after 30 mins by Ellman's method
T2 sequence (P06276 whole entry): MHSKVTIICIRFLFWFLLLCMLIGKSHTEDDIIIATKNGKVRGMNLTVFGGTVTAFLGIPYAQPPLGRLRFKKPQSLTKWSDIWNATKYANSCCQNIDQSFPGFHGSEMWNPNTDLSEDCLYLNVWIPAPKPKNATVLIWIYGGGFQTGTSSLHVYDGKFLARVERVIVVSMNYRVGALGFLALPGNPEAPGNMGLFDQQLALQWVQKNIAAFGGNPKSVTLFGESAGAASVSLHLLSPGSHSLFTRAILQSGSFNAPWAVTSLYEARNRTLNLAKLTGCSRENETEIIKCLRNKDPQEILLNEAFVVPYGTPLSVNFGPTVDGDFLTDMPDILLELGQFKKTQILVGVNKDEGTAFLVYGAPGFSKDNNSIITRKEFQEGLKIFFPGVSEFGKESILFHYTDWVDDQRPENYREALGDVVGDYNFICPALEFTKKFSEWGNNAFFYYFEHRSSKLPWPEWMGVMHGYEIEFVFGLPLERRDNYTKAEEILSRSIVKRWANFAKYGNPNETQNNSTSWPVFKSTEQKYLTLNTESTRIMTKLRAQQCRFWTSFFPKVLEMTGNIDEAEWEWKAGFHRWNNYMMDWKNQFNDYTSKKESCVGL

Mus musculus [35] = assay: Neuroprotective activity against scopolamine-induced cognitive deficit Swiss albino mouse model assessed as increase in BDNF mRNA level at 10 mg/kg, ip measured after 14 days by RT-PCR analysis; assay type: functional, organism-based; conditions: time 14.0 day
Mus musculus [36] = assay: Reversal of scopolamine-induced cognitive deficit Swiss albino mouse model assessed as decrease in escape latency at 10 mg/kg, ip measured for 5 days by Morris water maze test; assay type: functional, organism-based; conditions: time 5.0 day
HMC3 [37] = assay: Antiinflammatory activity against LPS/ATP-induced human HMC3 cells assessed as reduction in NLRP3 level at 12.5 uM by immunocytochemistry based analysis; assay type: functional, cell-based
HMC3 [38] = assay: Antiinflammatory activity against LPS/ATP-induced human HMC3 cells assessed as reduction in IL-1beta level at 12.5 uM by Western blot analysis; assay type: functional, cell-based
HMC3 [39] = assay: Antiinflammatory activity against LPS/ATP-induced human HMC3 cells assessed as reduction in nuclear translocation of NF-kappaB at 12.5 uM by immunocytochemistry based analysis; assay type: functional, cell-based
[40] = Acute toxicity in Swiss albino mouse assessed as signs of over-weight gain at 2000 mg/kg, po measured 14 days post-administration; assay type: organism-based; conditions: in vivo, 336 h, time 14 day
Mus musculus [41] = assay: Neuroprotective activity against scopolamine-induced cognitive deficit Swiss albino mouse model assessed as increase in PKA mRNA level at 10 mg/kg, ip measured after 14 days by RT-PCR analysis; assay type: functional, organism-based; conditions: time 14.0 day
Acetylcholinesterase [42] = biological target: T1, Acetylcholinesterase; assay: Mixed inhibition of human AChE using ATCI as substrate at 0.1 to 5 uM preincubated for 30 mins followed by substrate addition by Ellman's method; conditions: dose 0.1-5 µM
Cholinesterase [43] = biological target: Cholinesterase (Equus caballus, UniProt P81908); assay: Inhibition of equine BChE using BTCI as substrate preincubated for 30 mins followed by substrate addition measured after 30 mins by Ellman's method
Sequence of Cholinesterase (Equus caballus, UniProt P81908) (P81908 whole entry): as the sequence (P81908 whole entry) above

[44] = Acute toxicity in Swiss albino mouse assessed as signs of abnormal behaviour at 2000 mg/kg, po measured 14 days post-administration; assay type: organism-based; conditions: in vivo, 336 h, time 14 day
[45] = Metal chelating activity assessed as compound-Fe3+ complex formation at 600 uM incubated for 24 hrs by UV spectrophotometry
Acetylcholinesterase [46] = biological target: T1, Acetylcholinesterase; assay: Inhibition of AChE (unknown origin)
Cholinesterase [47] = biological target: T2, Cholinesterase; assay: Inhibition of BChE (unknown origin)

Sequence of Amyloid-beta precursor protein (Homo sapiens) (P05067 whole entry): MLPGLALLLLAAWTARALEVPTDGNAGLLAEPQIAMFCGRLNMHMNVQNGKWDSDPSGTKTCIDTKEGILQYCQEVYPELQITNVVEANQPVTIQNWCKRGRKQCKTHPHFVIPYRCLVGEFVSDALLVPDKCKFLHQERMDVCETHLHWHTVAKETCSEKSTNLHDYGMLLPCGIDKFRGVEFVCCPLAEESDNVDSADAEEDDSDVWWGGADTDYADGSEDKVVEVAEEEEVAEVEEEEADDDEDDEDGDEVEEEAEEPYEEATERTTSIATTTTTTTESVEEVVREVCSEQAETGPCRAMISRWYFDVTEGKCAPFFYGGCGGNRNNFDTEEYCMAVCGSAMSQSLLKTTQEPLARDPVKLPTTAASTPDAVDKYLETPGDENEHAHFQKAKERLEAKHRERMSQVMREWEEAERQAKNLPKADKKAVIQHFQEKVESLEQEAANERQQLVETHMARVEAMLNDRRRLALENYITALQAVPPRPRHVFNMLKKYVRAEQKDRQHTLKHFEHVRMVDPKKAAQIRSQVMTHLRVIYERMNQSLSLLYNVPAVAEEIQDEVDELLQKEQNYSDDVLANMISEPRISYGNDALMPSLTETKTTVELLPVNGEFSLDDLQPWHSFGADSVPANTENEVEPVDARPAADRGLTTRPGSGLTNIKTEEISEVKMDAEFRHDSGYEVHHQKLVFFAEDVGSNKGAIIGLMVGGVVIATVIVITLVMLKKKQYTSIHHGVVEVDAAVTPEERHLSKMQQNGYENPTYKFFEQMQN

SMILES: COc1ccc2[nH]cc(CCNC(=O)Nc3cccc(/C(N)=N/O)c3)c2c1
- inhibition [1]: Active
- Activity (Mus musculus [2]): Active
- inhibition [3]: Active
- Activity (Mus musculus [4]): Active
- IC50 [5]: 15.2 µM
- Activity (HMC3 [6]): Active
- Activity (Mus musculus [7]): Active
- Activity (Mus musculus [8]): Active
- Activity (Mus musculus [9]): Active
- inhibition (HMC3 [10]): Active
- Activity [11]: Non-toxic
- inhibition [12]: Active
- Papp at 500 µM [13]: 12.3 ×10⁻⁶ cm/s
- IC50 (Acetylcholinesterase [14]): 0.91 µM
- Activity [15]: Non-toxic
- Activity (HMC3 [16]): Active
- Activity (Mus musculus [17]): Active
- Activity (Mus musculus [18]): Active
- Activity [19]: 47.3%
- Activity (PC-12): Non-toxic
- Activity [20]: inactive
- Activity [21]: Non-toxic
- Activity (Mus musculus [22]): Active
- Activity (HMC3 [23]): Active
- inhibition (HMC3 [24]): Active
- Activity (Mus musculus [25]): Active
- Activity (HMC3 [26]): Active
- Activity (HMC3 [27]): Active
- Activity [28]: Non-toxic
- Activity (Mus musculus [29]): Active
- Activity (HMC3 [30]): Active
- Activity (HMC3 [31]): Active
- inhibition (HMC3 [32]): Active
- Activity (HMC3 [33]): Active
- IC50 (Cholinesterase [34]): 1.01 µM
- Activity (Mus musculus [35]): Active
- Activity (Mus musculus [36]): Active
- Activity (HMC3 [37]): Active
- Activity (HMC3 [38]): Active
- Activity (HMC3 [39]): Active
- Activity [40]: Non-toxic
- Activity (Mus musculus [41]): Active
- inhibition (Acetylcholinesterase [42]): Active
- IC50 (Cholinesterase [43]): 1.19 µM
- Activity [44]: Non-toxic
- Activity [45]: inactive

SMILES: COc1cc(/C=C/C(=O)NCC(=O)NCCc2c[nH]c3ccccc23)ccc1O
- IC50 (Acetylcholinesterase [46]): 0.96 µM
- IC50 (Cholinesterase [47]): 1.23 µM

Source: ChEMBL document CHEMBL6092212, “Discovery of novel substituted (Z)-N'-hydroxy-3-(3-phenylureido)benzimidamide derivatives as multifunctional molecules targeting pathological hallmarks of Alzheimer's disease” (Eur J Med Chem, 2024)
